Results from ChEMBL document CHEMBL1201862, “PubChem BioAssay data set” (2004).
Active and inactive are the calls of the source.

Experiments:
[1] = biological target: T1, Sentrin-specific protease 8 (Homo sapiens, UniProt Q96LD8); format: functional;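 also: luminescence read-out of SENP8 inhibition, dose-response confirmation following an ultra-high-throughput screen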
T1 sequence (Q96LD8 whole entry): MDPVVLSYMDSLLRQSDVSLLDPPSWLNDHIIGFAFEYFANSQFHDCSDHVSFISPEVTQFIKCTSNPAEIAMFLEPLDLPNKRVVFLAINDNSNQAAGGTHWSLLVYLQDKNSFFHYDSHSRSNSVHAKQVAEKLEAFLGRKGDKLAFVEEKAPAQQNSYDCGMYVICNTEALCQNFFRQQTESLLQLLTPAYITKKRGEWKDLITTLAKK

INS1 = test: beta cell apoptosis inhibitors, cytokine rescue, dose response, luminescence, retest (AID 449756); format: functional, cell-based; conditions: Rattus norvegicus;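 also: cell death triggered by IL-1 beta plus TNF-alpha plus IFN-gamma mixture; protective hits raise ATP signal compared with cytokine alone wells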
[2] = insulin promoter down-regulators in MIN6 cells, imaging, high-content screening, mouse beta cells (AID 1628); format: functional
Caspase-3 = biological target: T2, Caspase-3 (Homo sapiens, UniProt P42574); format: functional;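 also: Dose-response selectivity test against caspase-3 for candidate inhibitors of sentrin-specific proteases (SENPs)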
T2 sequence (P42574 whole entry): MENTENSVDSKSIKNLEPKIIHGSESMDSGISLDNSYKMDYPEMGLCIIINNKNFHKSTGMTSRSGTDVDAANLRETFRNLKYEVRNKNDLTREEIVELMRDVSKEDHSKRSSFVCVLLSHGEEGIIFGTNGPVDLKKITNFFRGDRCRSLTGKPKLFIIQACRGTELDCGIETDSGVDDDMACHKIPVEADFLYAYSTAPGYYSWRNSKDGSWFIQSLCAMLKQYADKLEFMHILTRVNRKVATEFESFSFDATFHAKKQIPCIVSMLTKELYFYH

Fatty acid synthase [3] = biological target: T3, Fatty acid synthase (Homo sapiens, UniProt P49327); test: FAS thioesterase domain inhibitors, dose response, biochemical, endpoint fluorescence intensity, uHTS hits (AID 624327); format: functional;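 also: fluorescence from hydrolysis of an O-methyl fluorescein acyl ester substrate by the enzyme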
[4] = cytotoxicity in MIN6 insulinoma cells, dose response, cytotoxicity control, cell-based, mouse insulinoma (AID 2122); format: functional;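 also: confirmatory high-throughput counterscreen run to flag cytotoxic compounds; mouse MIN-6 beta cells carrying an insulin promoter eGFP reporter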
Fatty acid synthase [5] = biological target: T3, Fatty acid synthase; test: FAS thioesterase domain inhibitors, dose response, biochemical, kinetic fluorescence intensity (AID 624326); format: functional;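 also: rate of fluorescence rise from hydrolysis of a fluorogenic O-methyl fluorescein ester substrate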
[6] = biological target: T4, Sentrin-specific protease 7 (Homo sapiens, UniProt Q9BQF6); format: functional;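 also: Luminescence-based dose-response confirmation of ultra-high-throughput screening hits, measuring inhibition of SENP7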
T4 sequence (Q9BQF6 whole entry): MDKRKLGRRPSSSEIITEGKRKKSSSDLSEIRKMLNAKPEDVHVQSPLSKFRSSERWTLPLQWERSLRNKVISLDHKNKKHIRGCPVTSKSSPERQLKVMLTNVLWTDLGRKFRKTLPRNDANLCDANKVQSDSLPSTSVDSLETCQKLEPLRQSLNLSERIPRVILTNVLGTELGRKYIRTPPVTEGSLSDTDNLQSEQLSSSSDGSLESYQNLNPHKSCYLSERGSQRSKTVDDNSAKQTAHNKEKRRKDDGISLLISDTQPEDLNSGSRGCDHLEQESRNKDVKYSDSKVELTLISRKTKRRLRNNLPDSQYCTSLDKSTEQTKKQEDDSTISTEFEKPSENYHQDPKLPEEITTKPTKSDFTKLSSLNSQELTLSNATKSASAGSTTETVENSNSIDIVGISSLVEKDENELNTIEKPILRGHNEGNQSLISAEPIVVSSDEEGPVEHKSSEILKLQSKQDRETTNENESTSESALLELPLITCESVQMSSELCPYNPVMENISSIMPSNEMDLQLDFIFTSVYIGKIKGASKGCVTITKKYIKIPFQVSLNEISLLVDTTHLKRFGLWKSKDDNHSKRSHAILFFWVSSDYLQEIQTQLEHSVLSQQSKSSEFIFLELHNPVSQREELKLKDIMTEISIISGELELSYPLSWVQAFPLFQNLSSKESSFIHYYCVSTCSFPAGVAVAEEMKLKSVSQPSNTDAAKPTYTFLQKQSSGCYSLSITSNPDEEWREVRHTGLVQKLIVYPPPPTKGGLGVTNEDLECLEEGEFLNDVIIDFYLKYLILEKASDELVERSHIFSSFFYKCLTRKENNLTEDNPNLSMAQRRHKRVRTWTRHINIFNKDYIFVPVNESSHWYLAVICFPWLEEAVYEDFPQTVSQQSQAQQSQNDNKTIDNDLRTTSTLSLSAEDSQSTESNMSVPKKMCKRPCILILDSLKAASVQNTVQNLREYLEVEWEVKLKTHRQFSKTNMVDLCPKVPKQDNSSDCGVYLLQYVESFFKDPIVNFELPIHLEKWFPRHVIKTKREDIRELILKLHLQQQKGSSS

[7] = biological target: T5, Sentrin-specific protease 6 (Homo sapiens, UniProt Q9GZR1); format: functional;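 also: Luminescence-based dose-response confirmatory assay of SENP6 inhibition, following up an ultra-high-throughput screen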
T5 sequence (Q9GZR1 whole entry): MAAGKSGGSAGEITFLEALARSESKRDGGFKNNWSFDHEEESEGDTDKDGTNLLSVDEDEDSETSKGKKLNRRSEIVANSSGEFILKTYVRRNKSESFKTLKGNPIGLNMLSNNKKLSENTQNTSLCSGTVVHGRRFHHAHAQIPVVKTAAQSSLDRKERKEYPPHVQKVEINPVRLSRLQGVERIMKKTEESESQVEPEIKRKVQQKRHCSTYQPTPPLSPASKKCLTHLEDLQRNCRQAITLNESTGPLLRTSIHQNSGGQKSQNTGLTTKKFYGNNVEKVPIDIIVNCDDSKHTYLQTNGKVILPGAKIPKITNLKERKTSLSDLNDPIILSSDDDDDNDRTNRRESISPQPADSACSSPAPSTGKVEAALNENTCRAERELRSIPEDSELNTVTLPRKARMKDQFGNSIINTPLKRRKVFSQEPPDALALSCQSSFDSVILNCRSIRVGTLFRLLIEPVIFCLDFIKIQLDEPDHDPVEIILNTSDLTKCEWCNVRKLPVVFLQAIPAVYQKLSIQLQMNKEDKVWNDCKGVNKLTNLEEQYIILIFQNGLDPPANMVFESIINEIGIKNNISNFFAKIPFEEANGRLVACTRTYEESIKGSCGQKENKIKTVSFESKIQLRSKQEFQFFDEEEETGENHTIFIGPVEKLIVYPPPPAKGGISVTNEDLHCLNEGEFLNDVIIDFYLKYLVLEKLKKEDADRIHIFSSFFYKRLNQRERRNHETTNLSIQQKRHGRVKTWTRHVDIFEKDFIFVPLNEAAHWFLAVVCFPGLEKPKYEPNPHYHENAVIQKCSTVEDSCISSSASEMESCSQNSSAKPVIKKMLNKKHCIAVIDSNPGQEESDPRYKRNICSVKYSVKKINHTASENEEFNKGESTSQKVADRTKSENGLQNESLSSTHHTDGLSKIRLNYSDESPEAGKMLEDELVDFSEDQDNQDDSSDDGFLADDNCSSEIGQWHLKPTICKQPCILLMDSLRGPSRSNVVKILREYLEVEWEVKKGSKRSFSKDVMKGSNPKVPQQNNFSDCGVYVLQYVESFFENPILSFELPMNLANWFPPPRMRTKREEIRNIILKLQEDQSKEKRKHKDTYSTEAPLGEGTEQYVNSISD

[8] = biological target: Nuclear receptor subfamily 0 group B member 1 (Homo sapiens, UniProt P51843); test: Luminescence-based cell-based high throughput dose response assay for inhibitors of the orphan nuclear receptor subfamily 0, group B, member 1 (DAX1; NR0B1). [Related pubchem assays (depositor defined):AID504766, AID504790]; format: functional
HEK293 = test: cells; format: functional, cell-based; conditions: Homo sapiens
[9] = inhibitors of PGC1a acetylation in cells, dose response, cell-based, cherry-picked samples (AID 720514); format: functional;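 also: potency may reflect raised or lowered acetylation signal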
A-375 = test: MITF: Counter assay: A375 proliferation Measured in Cell-Based System Using Plate Reader - 2084-03_Inhibitor_Dose_DryPowder_Activity. [Related pubchem assays (depositor defined):AID488944]; format: functional; conditions: Homo sapiens
[10] = biological target: T6, Microphthalmia-associated transcription factor (Homo sapiens, UniProt O75030); test: TRPM1 promoter luciferase signal decrease, dose response, MITF inhibitor project, cell-based, SK-MEL-5, cherry-picked, set 3 (AID 493073); format: functional
T6 sequence (O75030 whole entry): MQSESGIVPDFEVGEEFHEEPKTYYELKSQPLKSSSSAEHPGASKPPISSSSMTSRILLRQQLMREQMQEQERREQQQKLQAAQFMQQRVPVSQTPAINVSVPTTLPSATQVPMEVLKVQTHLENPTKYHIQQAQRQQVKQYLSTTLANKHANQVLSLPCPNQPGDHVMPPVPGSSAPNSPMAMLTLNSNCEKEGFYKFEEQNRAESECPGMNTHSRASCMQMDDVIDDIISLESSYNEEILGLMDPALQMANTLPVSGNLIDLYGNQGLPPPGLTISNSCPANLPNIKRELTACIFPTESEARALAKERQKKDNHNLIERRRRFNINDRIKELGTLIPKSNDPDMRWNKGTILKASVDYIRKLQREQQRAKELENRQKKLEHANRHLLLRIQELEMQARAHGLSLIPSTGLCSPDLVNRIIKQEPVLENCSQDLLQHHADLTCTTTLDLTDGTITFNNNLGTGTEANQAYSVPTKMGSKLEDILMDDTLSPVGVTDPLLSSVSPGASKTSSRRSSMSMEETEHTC

T3 sequence (P49327 whole entry, the tested form may be a part): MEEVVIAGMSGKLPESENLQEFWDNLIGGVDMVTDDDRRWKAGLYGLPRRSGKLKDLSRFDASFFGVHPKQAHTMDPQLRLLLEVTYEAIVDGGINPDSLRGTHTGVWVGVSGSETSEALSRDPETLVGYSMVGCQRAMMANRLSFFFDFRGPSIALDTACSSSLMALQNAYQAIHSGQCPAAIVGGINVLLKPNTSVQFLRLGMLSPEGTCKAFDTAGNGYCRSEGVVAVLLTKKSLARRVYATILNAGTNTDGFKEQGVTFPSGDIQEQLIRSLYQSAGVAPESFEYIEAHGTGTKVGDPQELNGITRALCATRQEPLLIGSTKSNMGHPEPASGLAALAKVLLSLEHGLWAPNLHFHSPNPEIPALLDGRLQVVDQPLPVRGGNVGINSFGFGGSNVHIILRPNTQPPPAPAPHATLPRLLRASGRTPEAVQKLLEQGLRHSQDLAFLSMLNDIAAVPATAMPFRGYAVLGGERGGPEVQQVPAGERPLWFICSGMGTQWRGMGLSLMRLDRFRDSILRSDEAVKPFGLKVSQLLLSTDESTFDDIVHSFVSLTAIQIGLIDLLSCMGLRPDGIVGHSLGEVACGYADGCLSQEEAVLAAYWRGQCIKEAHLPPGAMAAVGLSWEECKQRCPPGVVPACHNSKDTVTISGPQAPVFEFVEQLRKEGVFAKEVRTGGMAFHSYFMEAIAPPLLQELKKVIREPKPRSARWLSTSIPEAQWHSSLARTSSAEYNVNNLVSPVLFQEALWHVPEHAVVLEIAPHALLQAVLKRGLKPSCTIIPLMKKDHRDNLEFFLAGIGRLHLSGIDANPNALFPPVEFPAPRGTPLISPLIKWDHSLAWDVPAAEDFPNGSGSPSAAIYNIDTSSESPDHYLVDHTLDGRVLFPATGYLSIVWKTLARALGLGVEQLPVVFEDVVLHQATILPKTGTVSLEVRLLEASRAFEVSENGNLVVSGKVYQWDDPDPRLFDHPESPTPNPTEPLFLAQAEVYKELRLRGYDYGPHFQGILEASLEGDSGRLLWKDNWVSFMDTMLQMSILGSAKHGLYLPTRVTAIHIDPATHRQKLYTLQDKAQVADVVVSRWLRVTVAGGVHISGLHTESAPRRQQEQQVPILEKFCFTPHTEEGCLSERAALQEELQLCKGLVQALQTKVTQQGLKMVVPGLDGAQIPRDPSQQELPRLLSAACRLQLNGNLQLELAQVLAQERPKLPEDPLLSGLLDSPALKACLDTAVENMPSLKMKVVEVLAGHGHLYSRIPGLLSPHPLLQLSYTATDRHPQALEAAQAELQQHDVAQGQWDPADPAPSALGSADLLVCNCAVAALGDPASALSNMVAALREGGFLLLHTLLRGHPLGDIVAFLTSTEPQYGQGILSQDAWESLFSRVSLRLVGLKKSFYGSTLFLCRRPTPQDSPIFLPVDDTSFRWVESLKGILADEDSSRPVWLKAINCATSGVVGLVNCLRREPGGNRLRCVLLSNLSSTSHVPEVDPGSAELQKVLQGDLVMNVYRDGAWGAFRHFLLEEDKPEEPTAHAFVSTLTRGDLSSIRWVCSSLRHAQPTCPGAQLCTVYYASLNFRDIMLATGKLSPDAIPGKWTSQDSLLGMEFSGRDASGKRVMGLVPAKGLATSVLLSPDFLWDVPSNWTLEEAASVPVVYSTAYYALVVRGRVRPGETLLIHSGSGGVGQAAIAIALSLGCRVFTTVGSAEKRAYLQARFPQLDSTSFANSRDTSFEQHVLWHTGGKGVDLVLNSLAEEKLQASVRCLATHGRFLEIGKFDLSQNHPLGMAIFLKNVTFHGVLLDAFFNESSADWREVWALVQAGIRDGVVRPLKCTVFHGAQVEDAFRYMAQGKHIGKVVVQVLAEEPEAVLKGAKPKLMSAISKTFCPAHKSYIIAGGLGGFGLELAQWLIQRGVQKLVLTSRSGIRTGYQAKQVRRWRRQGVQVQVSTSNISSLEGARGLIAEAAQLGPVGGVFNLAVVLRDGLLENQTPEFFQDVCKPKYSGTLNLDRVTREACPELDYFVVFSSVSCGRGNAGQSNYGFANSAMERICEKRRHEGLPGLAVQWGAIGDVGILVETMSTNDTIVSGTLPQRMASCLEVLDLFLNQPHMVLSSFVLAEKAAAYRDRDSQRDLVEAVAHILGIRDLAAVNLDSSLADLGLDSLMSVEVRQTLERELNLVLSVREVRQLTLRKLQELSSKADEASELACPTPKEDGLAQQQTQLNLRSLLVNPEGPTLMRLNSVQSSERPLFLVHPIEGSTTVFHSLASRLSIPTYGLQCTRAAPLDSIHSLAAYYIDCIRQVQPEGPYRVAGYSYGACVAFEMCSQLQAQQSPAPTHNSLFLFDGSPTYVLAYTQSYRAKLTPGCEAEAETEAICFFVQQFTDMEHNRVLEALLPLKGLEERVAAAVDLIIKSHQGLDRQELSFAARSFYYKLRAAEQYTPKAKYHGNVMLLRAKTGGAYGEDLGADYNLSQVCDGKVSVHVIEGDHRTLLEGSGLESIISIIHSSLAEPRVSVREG
Nuclear receptor subfamily 0 group B member 1, sequence (P51843 whole entry): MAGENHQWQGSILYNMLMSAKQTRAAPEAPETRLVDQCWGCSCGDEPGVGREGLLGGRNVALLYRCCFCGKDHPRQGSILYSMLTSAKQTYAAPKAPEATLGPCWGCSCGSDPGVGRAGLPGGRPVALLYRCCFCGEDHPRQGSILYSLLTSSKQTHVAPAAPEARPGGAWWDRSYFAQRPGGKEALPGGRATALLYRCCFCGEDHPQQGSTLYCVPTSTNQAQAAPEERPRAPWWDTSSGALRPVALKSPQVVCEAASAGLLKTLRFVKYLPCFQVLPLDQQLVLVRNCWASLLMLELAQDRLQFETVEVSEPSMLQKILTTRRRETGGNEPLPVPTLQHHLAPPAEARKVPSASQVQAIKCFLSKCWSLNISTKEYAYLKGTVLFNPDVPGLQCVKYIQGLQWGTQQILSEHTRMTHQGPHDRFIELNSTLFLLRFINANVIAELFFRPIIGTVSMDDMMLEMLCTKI

O=C(Nc1ccc(OC(F)(F)F)cc1)Nc1cccc([N+](=O)[O-])c1
IC50 [1]: > 100 µM (inactive) | AC50 (INS1): 2.8 µM (active) | IC50 [2]: 1.42 µM (active) | IC50 (Caspase-3): 89.9 µM (active) | IC50 (Fatty acid synthase [3]): 6.74 µM (active) | IC50 [4]: 1.27 µM (active) | IC50 (Fatty acid synthase [5]): 6.14 µM (active) | IC50 [6]: 8.57 µM (active) | IC50 [7]: > 100 µM (inactive)

CCCCN(C(C)=O)C1CC(=O)N(c2ccc(OCCC)cc2)C1=O (centres undefined)
IC50 [8]: > 67.5 µM (inactive) | IC50 (HEK293): > 67.5 µM (inactive)

Cc1cccc(NC(=O)CNC(=O)Cn2ncc(Cl)c(Cl)c2=O)c1C
AC50 [9]: 6.82 µM (active) | AC50 (A-375): 20.5 µM (active) | AC50 [10]: 13.4 µM (active)
